“Also recorded” adds a separate entry of the source.
Tested on: kmt2d CRISPR mosaic mutants (F0)
Assay: CE defects in kmt2d-CRISPR F0 mutants
Assay type: in vivo, zebrafish
Conditions: kmt2d-CRISPR F0, 100 nM; listed as dmDf
Source text: Prior and current genetic zebrafish models of KS focused on the newly discovered rap1a/rap1b genes. However, from the perspective of clinical utility, dmDf should be efficacious in kmt2d mutants, since loss of function mutations of the human ortholog account for as much as 75% of KS (see, Ng, S. B. et al. Nat Genet 42, 790-3 (2010); Li, Y. et al. Hum Genet 130, 715-24 (2011); Lu, J., Mo, G., Ling, Y. & Ji, L. Mol Med Rep 14, 3641-5 (2016); Miyake, N. et al. Am J Med Genet A 161a, 2234-43 (2013)). Therefore, experiments supplemented the testing tools by creating a kmt2d CRISPR/Cas9 mutant. A guide RNA targeting exon 4 of kmt2d induced efficient (˜99%) Cas9-mediated genome editing (FIG. 8). […]
For convergence and extension (CE) phenotyping, embryos were scored as described (see, Leitch, C. C. et al. Nat Genet 40, 443-8 (2008)) at the 8-10 somite stage, and images were captured using an AZ100 microscope and NIS Elements software (Nikon). […] The distance between Meckel's (MK) and ceratohyal (CH) cartilages was measured on ventral bright field images with Image J (NIH). […] Fluorescence signal on embryo heads was imaged with the Nikon AZ100 microscope and DS-Qi1MC digital camera using […] Z-stacks to generate extended depth of focus images. Cell numbers were quantified using the ImageJ ICTN plugin (NIH). […]

CC(C)c1nc(-c2cccc(NS(=O)(=O)c3c(F)cccc3F)c2F)c(-c2ccnc(N)n2)s1 [Compound 8, desmethyl-Dabrafenib]
CE defects: ameliorates the CE defects; also recorded: ameliorated significantly

Source: patent publication US20210196714A1, “COMPOSITIONS AND METHODS FOR TREATING DISORDERS CHARACTERIZED WITH ABERRANT RAS/MAPK SIGNALING” (Duke University, priority 2018, published 2021)
